Experimental data taken from US20080175794A1, “Substituted Pyridazinyl- and Pyrimidinyl-Quinolin-4-Ylamine Analogues” (NEUROGEN CORPORATION, priority 2005, published 2008).

What follows are compounds tested against T1, human capsaicin receptor (Homo sapiens, UniProt Q8NER1) (assay: Calcium mobilization assay, determination of antagonist activity (Example 6)). Conditions: Table III; assay provided in Example 6; cells expressing human capsaicin receptor, capsaicin at EC50.
T1 construct: expressed in transfected cells
T1 sequence (Q8NER1 whole entry): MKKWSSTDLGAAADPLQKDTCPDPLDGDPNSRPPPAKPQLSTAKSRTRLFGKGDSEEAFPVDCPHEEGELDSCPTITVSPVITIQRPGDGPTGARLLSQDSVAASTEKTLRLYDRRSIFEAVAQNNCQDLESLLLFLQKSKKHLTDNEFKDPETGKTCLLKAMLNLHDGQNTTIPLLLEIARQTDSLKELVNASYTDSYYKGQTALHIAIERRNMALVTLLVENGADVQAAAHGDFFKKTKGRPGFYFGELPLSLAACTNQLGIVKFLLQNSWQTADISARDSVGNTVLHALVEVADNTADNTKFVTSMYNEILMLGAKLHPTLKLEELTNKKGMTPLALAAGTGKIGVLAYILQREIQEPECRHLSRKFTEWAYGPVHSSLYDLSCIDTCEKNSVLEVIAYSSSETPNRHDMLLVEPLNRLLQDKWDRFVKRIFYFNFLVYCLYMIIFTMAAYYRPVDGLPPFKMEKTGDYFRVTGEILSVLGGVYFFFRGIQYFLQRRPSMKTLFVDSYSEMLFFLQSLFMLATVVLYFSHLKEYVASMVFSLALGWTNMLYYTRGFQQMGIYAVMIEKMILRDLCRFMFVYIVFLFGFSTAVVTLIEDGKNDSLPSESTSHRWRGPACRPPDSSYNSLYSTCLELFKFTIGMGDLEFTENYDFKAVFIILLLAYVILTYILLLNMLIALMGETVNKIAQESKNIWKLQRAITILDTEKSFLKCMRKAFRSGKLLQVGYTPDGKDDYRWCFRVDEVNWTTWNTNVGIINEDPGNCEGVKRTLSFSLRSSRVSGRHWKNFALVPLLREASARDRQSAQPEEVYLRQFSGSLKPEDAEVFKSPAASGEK
Format: cell-based
Experimental: A cDNA encoding full length human capsaicin receptor (SEQ ID NO:1, 2 or 3 of U.S. Pat. No. 6,482,611) is subcloned in the plasmid pBK-CMV (Stratagene, La Jolla, Calif.) for recombinant expression in mammalian cells.
Human embryonic kidney (HEK293) cells are transfected with the pBK-CMV expression construct encoding the full length human capsaicin receptor using standard methods. The transfected cells are selected over two weeks in media containing G418 (400 μg/ml) to obtain a pool of stably transfected cells. Independent clones are isolated from this pool by limiting dilution to obtain clonal stable cell lines for use in subsequent experiments.
Cells transfected with expression plasmids (as described in Example 4) and thereby expressing human capsaicin receptor are seeded and grown to 70-90% confluency in FALCON black-walled, clear-bottomed 96-well plates (#3904, BECTON-DICKINSON, Franklin Lakes, N.J.). The culture medium is emptied from the 96 well plates and FLUO-3 AM calcium sensitive dye (Molecular Probes, Eugene, Oreg.) is added to each well (dye solution: 1 mg FLUO-3 AM, 440 μL DMSO and 440 μl 20% pluronic acid in DMSO, diluted 1:250 in Krebs-Ringer HEPES (KRH) buffer (25 mM HEPES, […], 0.96 mM NaH2PO4, 1 mM MgSO4, 2 mM CaCl2, 5 mM glucose, 1 mM probenecid, pH 7.4), 50 μl diluted solution per well). Plates are covered with aluminum foil and incubated at 37° C. for 1-2 hours in an environment containing 5% CO2. After the incubation, the dye is emptied from the plates, and the cells are washed once with KRH buffer, and resuspended in KRH buffer.
To measure the ability of a test compound to agonize or antagonize a calcium mobilization response in cells expressing capsaicin receptors to capsaicin or other vanilloid agonist, the EC50 of the agonist capsaicin is first determined. An additional 20 μl of KRH buffer and 1 μl DMSO is added to each well of cells, prepared as described above. 100 μl capsaicin in KRH buffer is automatically transferred by the FLIPR instrument to each well. Capsaicin-induced calcium mobilization is monitored using either FLUOROSKAN ASCENT (Labsystems; Franklin, Mass.) or FLIPR (fluorometric imaging plate reader system; Molecular Devices, Sunnyvale, Calif.) instruments. Data obtained between 30 and 60 seconds after agonist application are used to generate an 8-point concentration response curve, with final capsaicin concentrations of 1 nM to 3 μM. KALEIDAGRAPH software (Synergy Software, Reading, Pa.) is used to fit the data to the equation: […]
Test compounds are dissolved in DMSO, diluted in 20 μl KRH buffer so that the final concentration of test compounds in the assay well is between […] and 5 μM, and added to cells prepared as described above. The 96 well plates containing prepared cells and test compounds are incubated in the dark at room temperature for 0.5 to 6 hours. It is important that the incubation not continue beyond 6 hours. Just prior to determining the fluorescence response, 100 μl capsaicin in KRH buffer at twice the EC50 concentration determined as described above is automatically added by the FLIPR instrument to each well of the 96 well plate for a final sample volume of 200 μl and a final capsaicin concentration equal to the EC50. The final concentration of test compounds in the assay wells is between 1 μM and 5 μM. […] The concentration of antagonist required to provide a 50% decrease, relative to the response observed in the presence of capsaicin and without antagonist, is the IC50 for the antagonist, and is preferably below 1 micromolar, 100 nanomolar, 10 nanomolar or 1 nanomolar.

Structure (SMILES)	IC50
FC(F)(F)c1ccc(Nc2ccnc3nc(-c4nnc(N5CCCCC5)cc4C(F)(F)F)cnc23)nc1 [Compound 176, 3-[6-piperidin-1-yl-4-(trifluoromethyl)pyridazin-3-yl]-N-[5-(trifluoromethyl)pyridin-2-yl]pyrido[2,3-b]pyrazin-8-amine]	< 1000 nM
CNC(=O)CN(C)c1cc(C(F)(F)F)c(-c2cnc3c(Nc4ccc(C(F)(F)F)cn4)ccnc3n2)nn1 [Compound 58, N,N2-dimethyl-N2-[5-(trifluoromethyl)-6-(8-{[5-(trifluoromethyl)pyridin-2-yl]amino}pyrido[2,3-b]pyrazin-3-yl)pyridazin-3-yl]glycinamide]	< 1000 nM
CCC(O)CNc1cc(C(F)(F)F)c(-c2cnc3c(Nc4ccc(C(F)(F)F)cn4)ccnc3n2)nn1 (stereo not drawn) [Compound 173, 1-{[5-(trifluoromethyl)-6-(8{[5-(trifluoromethyl)pyridin-2-yl]amino}pyrido[2,3-b]pyrazin-3-yl)pyridazin-3-yl]amino}butan-2-ol]	< 1000 nM
CN(CC(N)=O)c1cc(C(F)(F)F)c(-c2cnc3c(Nc4ccc(C(F)(F)F)cn4)ccnc3n2)nn1 [Compound 57, N2-methyl-N2-[5-(trifluoromethyl)-6-(8-{[5-(trifluoromethyl)pyridin-2-yl]amino}pyrido[2,3-b]pyrazin-3-yl)pyridazin-3-yl]glycinamide]	< 1000 nM
CCC(C)CNc1cc(C(F)(F)F)c(-c2cnc3c(Nc4ccc(C(F)(F)F)cn4)ccnc3n2)nn1 (stereo not drawn) [Compound 154, 3-{6-[(2-methylbutyl)amino]-4-(trifluoromethyl)pyridazin-3-yl}-N-[5-(trifluoromethyl)pyridin-2-yl]pyrido[2,3-b]pyrazin-8-amine]	< 1000 nM
CCCNc1cc(C(F)(F)F)c(-c2cnc3c(Nc4ccc(C(F)(F)F)cn4)ccnc3n2)nn1 [Compound 102, 3-[6-(propylamino)-4-(trifluoromethyl)pyridazin-3-yl]-N-[5-(trifluoromethyl)pyridin-2-yl]pyrido[2,3-b]pyrazin-8-amine]	< 1000 nM
COC1CCN(c2cc(C(F)(F)F)c(-c3cnc4c(Nc5ccc(C(F)(F)F)cn5)ccnc4n3)nn2)CC1 [Compound 188, 3-[6-(4-methoxypiperidin-1-yl)-4-(trifluoromethyl)pyridazin-3-yl]-N-[5-(trifluoromethyl)pyridin-2-yl]pyrido[2,3-b]pyrazin-8-amine]	< 1000 nM
CN(C)CCCNc1cc(C(F)(F)F)c(-c2cnc3c(Nc4ccc(C(F)(F)F)cn4)ccnc3n2)nn1 [Compound 139, N,N-dimethyl-N′-[5-(trifluoromethyl)-6-(8-{[5-(trifluoromethyl)pyridin-2-yl]amino}pyrido[2,3-b]pyrazin-3-yl)pyridazin-3-yl]propane-1,3-diamine]	< 1000 nM
FC(F)(F)c1ccc(Nc2ccnc3nc(-c4nnc(NC5CCCC5)cc4C(F)(F)F)cnc23)nc1 [Compound 109, 3-[6-(cyclopentylamino)-4-(trifluoromethyl)pyridazin-3-yl]-N-[5-(trifluoromethyl)pyridin-2-yl]pyrido[2,3-b]pyrazin-8-amine]	< 1000 nM
CN1CCC(N(C)c2cc(C(F)(F)F)c(-c3cnc4c(Nc5ccc(C(F)(F)F)cn5)ccnc4n3)nn2)C1 (stereo not drawn) [Compound 97, 3-{6-[methyl(1-methylpyrrolidin-3-yl)amino]-4-(trifluoromethyl)pyridazin-3-yl}-N-[5-(trifluoromethyl)pyridin-2-yl]pyrido[2,3-b]pyrazin-8-amine]	< 1000 nM
FC(F)(F)c1ccc(Nc2ccnc3nc(-c4nnc(NCC5CC5)cc4C(F)(F)F)cnc23)nc1 [Compound 103, 3-{6-[(cyclopropylmethyl)amino]-4-(trifluoromethyl)pyridazin-3-yl}-N-[5-(trifluoromethyl)pyridin-2-yl]pyrido[2,3-b]pyrazin-8-amine]	< 1000 nM
CC(O)CCNc1cc(C(F)(F)F)c(-c2cnc3c(Nc4ccc(C(F)(F)F)cn4)ccnc3n2)nn1 (stereo not drawn) [Compound 174, 4-{[5-(trifluoromethyl)-6-(8-{[5-(trifluoromethyl)pyridin-2-yl]amino}pyrido[2,3-b]pyrazin-3-yl)pyridazin-3-yl]amino}butan-2-ol]	< 1000 nM
CCC(C)Nc1cc(C(F)(F)F)c(-c2cnc3c(Nc4ccc(C(F)(F)F)cn4)ccnc3n2)nn1 (stereo not drawn) [Compound 108, 3-[6-(sec-butylamino)-4-(trifluoromethyl)pyridazin-3-yl]-N-[5-(trifluoromethyl)pyridin-2-yl]pyrido[2,3-b]pyrazin-8-amine]	< 1000 nM
CCOC(=O)CN(C)c1cc(C(F)(F)F)c(-c2cnc3c(Nc4ccc(C(F)(F)F)cn4)ccnc3n2)nn1 [Compound 187, ethyl N-methyl-N-[5-(trifluoromethyl)-6-(8-{[5-(trifluoromethyl)pyridin-2-yl]amino}pyrido[2,3-b]pyrazin-3-yl)pyridazin-3-yl]glycinate]	< 1000 nM

The next lines start with the values.

IC50	Structure (SMILES)
< 1000 nM	CCCC(CO)Nc1cc(C(F)(F)F)c(-c2cnc3c(Nc4ccc(C(F)(F)F)cn4)ccnc3n2)nn1 (stereo not drawn) [Compound 119, 2-{[5-(trifluoromethyl)-6-(8-{[5-(trifluoromethyl)pyridin-2-yl]amino}pyrido[2,3-b]pyrazin-3-yl)pyridazin-3-yl]amino}pentan-1-ol]
< 1000 nM	CN1CCCC1CCOc1cc(C(F)(F)F)c(-c2cnc3c(Nc4ccc(C(F)(F)F)cn4)ccnc3n2)nn1 (stereo not drawn) [Compound 65, 3-{6-[2-(1-methylpyrrolidin-2-yl)ethoxy]-4-(trifluoromethyl)pyridazin-3-yl}-N-[5-(trifluoromethyl)pyridin-2-yl]pyrido[2,3-b]pyrazin-8-amine]
< 1000 nM	CC(C)C(C)Nc1cc(C(F)(F)F)c(-c2cnc3c(Nc4ccc(C(F)(F)F)cn4)ccnc3n2)nn1 (stereo not drawn) [Compound 111, 3-{6-[(1,2-dimethylpropyl)amino]-4-(trifluoromethyl)pyridazin-3-yl}-N-[5-(trifluoromethyl)pyridin-2-yl]pyrido[2,3-b]pyrazin-8-amine]
< 1000 nM	CCN(CC)CCN(CC)c1cc(C(F)(F)F)c(-c2cnc3c(Nc4ccc(C(F)(F)F)cn4)ccnc3n2)nn1 [Compound 99, N,N,N′-triethyl-N′-[5-(trifluoromethyl)-6-(8-{[5-(trifluoromethyl)pyridin-2-yl]amino}pyrido[2,3-b]pyrazin-3-yl)pyridazin-3-yl]ethane-1,2-diamine]
< 1000 nM	CC(=O)c1cc(C(F)(F)F)c(-c2cnc3c(Nc4ccc(C(F)(F)F)cn4)ccnc3n2)nn1 [Compound 68, 1-[5-(trifluoromethyl)-6-(8-{[5-(trifluoromethyl)pyridin-2-yl]amino}pyrido[2,3-b]pyrazin-3-yl)pyridazin-3-yl]ethanone]
< 1000 nM	FC(F)(F)c1ccc(Nc2ccnc3nc(-c4nnc(NCc5ccccn5)cc4C(F)(F)F)cnc23)nc1 [Compound 80, 3-{6-[(pyridin-2-ylmethyl)amino]-4-(trifluoromethyl)pyridazin-3-yl}-N-[5-(trifluoromethyl)pyridin-2-yl]pyrido[2,3-b]pyrazin-8-amine]
< 1000 nM	CN(C)CCNc1cc(C(F)(F)F)c(-c2cnc3c(Nc4ccc(C(F)(F)F)cn4)ccnc3n2)nn1 [Compound 69, N,N-dimethyl-N′-[5-(trifluoromethyl)-6-(8-{[5-(trifluoromethyl)pyridin-2-yl]amino}pyrido[2,3-b]pyrazin-3-yl)pyridazin-3-yl]ethane-1,2-diamine]
